According to ChEMBL document CHEMBL1201862, “PubChem BioAssay data set” (2004):
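Grown in 96-well plates, cells were treated for 48 hours with each compound at five concentrations. Insufficient inhibition: endpoint recorded as highest concentration tested. At the GI50, growth is halved.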 Activity calls are given as the source filed them. No stated cut-off is given here; in the data, active = GI50 up to about 1.1 µM and inactive = higher.

Tests used:
Assay in all cases: NCI-60 cell line screen, 48 h
A549 = tested on: A549
ACHN = tested on: ACHN
BT-549 = tested on: BT-549
HCT-116 = tested on: HCT-116
HL-60 = tested on: HL-60
M14 = tested on: M14
MDA-MB-231 = tested on: MDA-MB-231
MDA-N = tested on: MDA-N
NCI-H23 = tested on: NCI-H23
OVCAR-4 = tested on: OVCAR-4
PC-3 = tested on: PC-3
RPMI-8226 = tested on: RPMI-8226
SF-268 = tested on: SF-268
SK-MEL-28 = tested on: SK-MEL-28
SR = tested on: SR
SW-620 = tested on: SW-620
T47D = tested on: T47D
UACC-257 = tested on: UACC-257
UO-31 = tested on: UO-31

Compound: c1ccc2c(c1)/C(=N\NC1=NCCN1)c1nc3ccccc3nc1-2
- GI50 (A549): 3.86 µM (inactive)
- GI50 (ACHN): 3.21 µM (inactive)
- GI50 (BT-549): 20.9 µM (inactive)
- GI50 (HCT-116): 0.863 µM (active)
- GI50 (HL-60): 3.83 µM (inactive)
- GI50 (M14): 6.65 µM (inactive)
- GI50 (MDA-MB-231): 10.5 µM (inactive)
- GI50 (MDA-N): 7.19 µM (inactive)
- GI50 (NCI-H23): 8.73 µM (inactive)
- GI50 (OVCAR-4): 17.6 µM (inactive)
- GI50 (PC-3): 2.56 µM (inactive)
- GI50 (RPMI-8226): 1 µM (active)
- GI50 (SF-268): 6.67 µM (inactive)
- GI50 (SK-MEL-28): 13.5 µM (inactive)
- GI50 (SR): 3.98 µM (inactive)
- GI50 (SW-620): 1.36 µM (inactive)
- GI50 (T47D): 19 µM (inactive)
- GI50 (UACC-257): 5.31 µM (inactive)

Compound: CCC[N+](C)(C)CCCNC(=O)c1c(O)c2ccccc2[nH]c1=O
- GI50 (A549): 46.3 µM (inactive)
- GI50 (ACHN): > 100 µM (inactive)
- GI50 (BT-549): 89.1 µM (inactive)
- GI50 (HCT-116): > 100 µM (inactive)
- GI50 (HL-60): > 100 µM (inactive)
- GI50 (MDA-MB-231): > 100 µM (inactive)
- GI50 (MDA-N): > 100 µM (inactive)
- GI50 (NCI-H23): > 100 µM (inactive)
- GI50 (OVCAR-4): > 100 µM (inactive)
- GI50 (PC-3): > 100 µM (inactive)
- GI50 (RPMI-8226): > 100 µM (inactive)
- GI50 (SF-268): > 100 µM (inactive)
- GI50 (SK-MEL-28): > 100 µM (inactive)
- GI50 (SR): > 100 µM (inactive)
- GI50 (SW-620): > 100 µM (inactive)
- GI50 (T47D): > 100 µM (inactive)
- GI50 (UACC-257): > 100 µM (inactive)
- GI50 (UO-31): 53.1 µM (inactive)

Compound: Cc1ccc([N+](=O)[O-])cc1S(=O)(=O)Nc1ccc(C2=NOC(c3ccccc3)C2)cc1 (stereo not given)
- GI50 (A549): 6.89 µM (inactive)
- GI50 (ACHN): 13.5 µM (inactive)
- GI50 (BT-549): 12.4 µM (inactive)
- GI50 (HCT-116): 7.08 µM (inactive)
- GI50 (HL-60): 5.12 µM (inactive)
- GI50 (M14): 4.11 µM (inactive)
- GI50 (MDA-MB-231): 8.99 µM (inactive)
- GI50 (MDA-N): 1.99 µM (inactive)
- GI50 (NCI-H23): 14.5 µM (inactive)
- GI50 (OVCAR-4): 1.32 µM (inactive)
- GI50 (PC-3): 7.19 µM (inactive)
- GI50 (RPMI-8226): 4.7 µM (inactive)
- GI50 (SF-268): 12.4 µM (inactive)
- GI50 (SK-MEL-28): 18.7 µM (inactive)
- GI50 (SR): 1.31 µM (inactive)
- GI50 (SW-620): 6 µM (inactive)
- GI50 (T47D): 5.77 µM (inactive)
- GI50 (UACC-257): 14.7 µM (inactive)
- GI50 (UO-31): 18.2 µM (inactive)

Compound: COc1ccc2c(c1)C1OCCNC1CC2 (stereo not given)
- GI50 (A549): > 100 µM (inactive)
- GI50 (ACHN): > 100 µM (inactive)
- GI50 (BT-549): > 100 µM (inactive)
- GI50 (HCT-116): > 100 µM (inactive)
- GI50 (HL-60): > 100 µM (inactive)
- GI50 (M14): > 100 µM (inactive)
- GI50 (MDA-MB-231): > 100 µM (inactive)
- GI50 (MDA-N): > 100 µM (inactive)
- GI50 (NCI-H23): > 100 µM (inactive)
- GI50 (PC-3): > 100 µM (inactive)
- GI50 (RPMI-8226): > 100 µM (inactive)
- GI50 (SF-268): > 100 µM (inactive)
- GI50 (SK-MEL-28): > 100 µM (inactive)
- GI50 (SR): > 100 µM (inactive)
- GI50 (SW-620): > 100 µM (inactive)
- GI50 (T47D): > 100 µM (inactive)
- GI50 (UACC-257): > 100 µM (inactive)
- GI50 (UO-31): > 100 µM (inactive)

Compound: Cc1ccc(C2=Nn3c(nc4sc(C)c(C)c4c3=O)SC2)cc1
- GI50 (A549): > 100 µM (inactive)
- GI50 (ACHN): > 100 µM (inactive)
- GI50 (BT-549): > 100 µM (inactive)
- GI50 (HCT-116): > 100 µM (inactive)
- GI50 (HL-60): > 100 µM (inactive)
- GI50 (MDA-MB-231): > 100 µM (inactive)
- GI50 (MDA-N): > 100 µM (inactive)
- GI50 (NCI-H23): > 100 µM (inactive)
- GI50 (OVCAR-4): > 100 µM (inactive)
- GI50 (PC-3): > 100 µM (inactive)
- GI50 (RPMI-8226): > 100 µM (inactive)
- GI50 (SF-268): > 100 µM (inactive)
- GI50 (SK-MEL-28): > 100 µM (inactive)
- GI50 (SR): > 100 µM (inactive)
- GI50 (SW-620): > 100 µM (inactive)
- GI50 (T47D): > 100 µM (inactive)
- GI50 (UACC-257): > 100 µM (inactive)
- GI50 (UO-31): > 100 µM (inactive)

Compound: O=C(c1ccccc1)c1c(-c2ccccc2)n(-c2ccccc2)[nH]c(=O)c1=O
- GI50 (A549): > 100 µM (inactive)
- GI50 (ACHN): 22.2 µM (inactive)
- GI50 (BT-549): 13.7 µM (inactive)
- GI50 (HCT-116): > 100 µM (inactive)
- GI50 (HL-60): 32.2 µM (inactive)
- GI50 (M14): > 100 µM (inactive)
- GI50 (MDA-MB-231): 20.2 µM (inactive)
- GI50 (MDA-N): 50.1 µM (inactive)
- GI50 (NCI-H23): 75 µM (inactive)
- GI50 (OVCAR-4): 32.6 µM (inactive)
- GI50 (PC-3): 18.9 µM (inactive)
- GI50 (RPMI-8226): 27.5 µM (inactive)
- GI50 (SF-268): 48.6 µM (inactive)
- GI50 (SK-MEL-28): > 100 µM (inactive)
- GI50 (SR): 23.8 µM (inactive)
- GI50 (T47D): > 100 µM (inactive)
- GI50 (UACC-257): 70.1 µM (inactive)
- GI50 (UO-31): 48.4 µM (inactive)

Compound: C[n+]1cn(-c2nc3ccccc3nc2[N-]S(=O)(=O)c2ccccc2)c2ccccc21
- GI50 (A549): > 100 µM (inactive)
- GI50 (ACHN): > 100 µM (inactive)
- GI50 (BT-549): > 100 µM (inactive)
- GI50 (HCT-116): > 100 µM (inactive)
- GI50 (HL-60): > 100 µM (inactive)
- GI50 (M14): > 100 µM (inactive)
- GI50 (MDA-MB-231): > 100 µM (inactive)
- GI50 (MDA-N): > 100 µM (inactive)
- GI50 (NCI-H23): > 100 µM (inactive)
- GI50 (OVCAR-4): > 100 µM (inactive)
- GI50 (PC-3): > 100 µM (inactive)
- GI50 (RPMI-8226): > 100 µM (inactive)
- GI50 (SF-268): > 100 µM (inactive)
- GI50 (SK-MEL-28): > 100 µM (inactive)
- GI50 (SR): > 100 µM (inactive)
- GI50 (SW-620): > 100 µM (inactive)
- GI50 (T47D): > 100 µM (inactive)
- GI50 (UACC-257): > 100 µM (inactive)
- GI50 (UO-31): 80.7 µM (inactive)

Compound: O=C(O)/C=C/C(=O)N1Cc2cc3ccccc3nc2C1
- GI50 (A549): > 100 µM (inactive)
- GI50 (ACHN): > 100 µM (inactive)
- GI50 (BT-549): > 100 µM (inactive)
- GI50 (HCT-116): > 100 µM (inactive)
- GI50 (HL-60): > 100 µM (inactive)
- GI50 (M14): > 100 µM (inactive)
- GI50 (MDA-MB-231): > 100 µM (inactive)
- GI50 (MDA-N): > 100 µM (inactive)
- GI50 (NCI-H23): > 100 µM (inactive)
- GI50 (PC-3): > 100 µM (inactive)
- GI50 (RPMI-8226): > 100 µM (inactive)
- GI50 (SF-268): > 100 µM (inactive)
- GI50 (SK-MEL-28): > 100 µM (inactive)
- GI50 (SR): > 100 µM (inactive)
- GI50 (SW-620): > 100 µM (inactive)
- GI50 (T47D): > 100 µM (inactive)
- GI50 (UACC-257): > 100 µM (inactive)
- GI50 (UO-31): > 100 µM (inactive)

Compound: CC(=O)N1C(OC(C)C)CC(C)N1c1ccccc1 (stereo not given)
- GI50 (A549): > 10 µM (inactive)
- GI50 (ACHN): > 10 µM (inactive)
- GI50 (BT-549): > 10 µM (inactive)
- GI50 (HCT-116): > 10 µM (inactive)
- GI50 (HL-60): > 10 µM (inactive)
- GI50 (M14): > 10 µM (inactive)
- GI50 (MDA-MB-231): > 10 µM (inactive)
- GI50 (MDA-N): > 10 µM (inactive)
- GI50 (NCI-H23): > 10 µM (inactive)
- GI50 (OVCAR-4): > 10 µM (inactive)
- GI50 (PC-3): > 10 µM (inactive)
- GI50 (RPMI-8226): > 10 µM (inactive)
- GI50 (SF-268): > 10 µM (inactive)
- GI50 (SK-MEL-28): > 10 µM (inactive)
- GI50 (SR): > 10 µM (inactive)
- GI50 (SW-620): > 10 µM (inactive)
- GI50 (T47D): > 10 µM (inactive)
- GI50 (UACC-257): > 10 µM (inactive)

Compound: COC1CC(C)(N)C(O)C(C)O1 (stereo not given)
- GI50 (A549): > 100 µM (inactive)
- GI50 (ACHN): > 100 µM (inactive)
- GI50 (BT-549): > 100 µM (inactive)
- GI50 (HCT-116): > 100 µM (inactive)
- GI50 (HL-60): > 100 µM (inactive)
- GI50 (M14): > 100 µM (inactive)
- GI50 (MDA-MB-231): > 100 µM (inactive)
- GI50 (MDA-N): > 100 µM (inactive)
- GI50 (NCI-H23): > 100 µM (inactive)
- GI50 (PC-3): > 100 µM (inactive)
- GI50 (RPMI-8226): > 100 µM (inactive)
- GI50 (SF-268): > 100 µM (inactive)
- GI50 (SK-MEL-28): > 100 µM (inactive)
- GI50 (SR): > 100 µM (inactive)
- GI50 (SW-620): > 100 µM (inactive)
- GI50 (T47D): > 100 µM (inactive)
- GI50 (UACC-257): > 100 µM (inactive)
- GI50 (UO-31): > 100 µM (inactive)

Compound: O=C1O/C(=C\C=C\CO)C=C1/C=C/CO [LISSOCLINOLIDE]
- GI50 (A549): 36.4 µM (inactive)
- GI50 (ACHN): 24.2 µM (inactive)
- GI50 (BT-549): 20 µM (inactive)
- GI50 (HCT-116): 14 µM (inactive)
- GI50 (HL-60): 29.3 µM (inactive)
- GI50 (M14): 20.2 µM (inactive)
- GI50 (MDA-MB-231): 21.3 µM (inactive)
- GI50 (MDA-N): 21.3 µM (inactive)
- GI50 (NCI-H23): 18.5 µM (inactive)
- GI50 (OVCAR-4): 45.5 µM (inactive)
- GI50 (PC-3): 14.3 µM (inactive)
- GI50 (RPMI-8226): 16.4 µM (inactive)
- GI50 (SF-268): 24.5 µM (inactive)
- GI50 (SK-MEL-28): 24.4 µM (inactive)
- GI50 (SR): 34.9 µM (inactive)
- GI50 (SW-620): 18.2 µM (inactive)
- GI50 (T47D): 20.7 µM (inactive)
- GI50 (UO-31): 16.5 µM (inactive)
